Source: patent US5227163A, “Lice-repellant compositions” (priority 1992, dated 1993)
Where “and” joins values, the source holds several entries; their conditions need not be identical. Equal entries are not always repeated.

Columns and labels:
[1] = tested on: human lice; experiment: In vivo lice repellency on rabbits of shampoo and conditioner; parameters: species or system human lice (on rabbits); conditions: for % Repellency (Mean Values): Table 5; for Number of Lice (Out of 40) Found in the Treated Area: three experiments, listed as D.M.P.
Experimental: (§1) Body lice were reared in the laboratory by feeding them every 48 hours on rabbits. Lice were placed on the shaved abdomen of a white rabbit and left until they fed to satiety. Outside the host the lice were maintained at a temperature of 30 ±1° C., and relative humidity of 70±10%.
The abdomen of a New Zealand white rabbit was shaved and 100 μl of the test substance was evenly distributed over an area 2.5×5 cm. A glass cylinder 5 cm high with an internal diameter of 3.5 cm was placed on the rabbit's abdomen so that one half of it was covering the treated area and the other half the adjacent untreated area. 40 human body lice (Pediculus humanus humanus) (20 adults and 20 nymphs) which had been fed 24 hours previously were placed in the middle of the cylinder between the treated and untreated area, and the cylinder was covered with a dark cloth in order to keep the test area in the dark. The lice remained on the body of the rabbit for 5 minutes during which time over 95% of them had started feeding. The number of lice found on the treated area was then recorded and the specimen was photographed. Room temperature during the test was 20±3° C. For comparison to the tested samples, two controls were also tested: 70% Ethanol (Frutarom, C. P.) and 33% Dimethyl Phthalate (in 70% Ethanol). […]
The efficacy of a shampoo and a hair-conditioner, aimed at repellency of human lice was examined in an in vivo procedure on rabbits. Each experiment included a terpenoid containing product and four controls: 70% Ethanol, Dimethyl phthalate, placebo shampoo and placebo conditioner. All experiments were repeated three times, and the results were consistent, as shown by Table 4.
(§2) % Repellency was calculated according to equation 1.
(§3) According to Equation 1, when lice are evenly distributed between the treated and untreated areas (n=1/2 A), % Repellency=0, and when no lice are left in the treated area (n=0), % Repellency=100.

[2] = tested on: human body lice; experiment: In vivo test of lice repellency on rabbits (spray, gel, de cologne); parameters: species or system Pediculus humanus humanus (on New Zealand white rabbits); conditions: 7 hours
[3] = tested on: human body lice; experiment: as above; parameters: species or system Pediculus humanus humanus (on New Zealand white rabbits); conditions: for % Repellency (Mean Values): Table 3; for Number of Lice (Out of 40) Found in the Treated Area: single experiments (a), (b), (c), listed as D.M.P.
Experimental: as §1
The abdomen of a New Zealand white rabbit was shaved and 100 μl of the test substance was evenly distributed over an area 2.5×5 cm. A glass cylinder 5 cm high with an internal diameter of 3.5 cm was placed on the rabbit's abdomen so that one half of it was covering the treated area and the other half the adjacent untreated area. 40 human body lice (Pediculus humanus humanus) (20 adults and 20 nymphs) which had been fed 24 hours previously were placed in the middle of the cylinder between the treated and untreated area, and the cylinder was covered with a dark cloth in order to keep the test area in the dark. The lice remained on the body of the rabbit for 5 minutes during which time over 95% of them had started feeding. The number of lice found on the treated area was then recorded and the specimen was photographed. Room temperature during the test was 20±3° C. For comparison to the tested samples, two controls were also tested: 70% Ethanol (Frutarom, C. P.) and 33% Dimethyl Phthalate (in 70% Ethanol).
The products were topically applied as a spray, lotion or gel on human hair and skin, to repel lice. The above procedure was carried out 1, 3, 5, and 24 hours after application of a test substance. Each substance was tested three times on three different rabbits on three different occasions.
as §2
Where: A = Total Number of lice
n = Mean number of lice found in the treated area
as §3

[4] = tested on: mosquito; conditions: Hwang et al. 1985; Ruledge 1988; cited from earlier work
[5] = tested on: lice; experiment: Standard in vitro test on filter paper (petri-dish lice repellency); conditions: 10 min, 20±3° C.
Experimental: Screening tests were performed on many substances of the following groups: terpenes (hydrocarbons), terpenoid alcohols, terpenoid esters, terpenoid aldehydes and ketones, essential oils which contain terpenoids and perfumes which contain terpenoids, as well as various general insect repellents, for lice-repellency. Each experiment included exposure of the lice to different concentrations of the tested substance, and measuring the dose response of those materials.
A petri-dish method was used to examine the repellency of the solutions for lice. A filter paper (Whatman No. 4, 5.5 cm in diameter) was secured in a petri-dish. A 100 μl portion of the test solution was placed on a corduroy patch (1.5 cm^2). The material was allowed to dry for 30 min. at room temperature (20±3° C.) and the patch was placed at the periphery of the petri-dish. A patch treated with a control solution (96% Ethanol) was placed on the opposite side of the dish. Twenty female lice which had been fed 24 hours previously were placed in the middle of the dish. A box was placed over the dish and it was covered with a dark cloth in order to keep the test area in the dark. The experiment was carried out at room temperature (20°±3° C.) and lasted 10 min. The number of lice on the treated and controlled patches as well as on the area between the patches was recorded in a protocol. The experiment was repeated three times for each sample.
% repellency was calculated by the following formula:
where: T=number of lice on the treated patch
C=number of lice on the untreated patch
The following terms were recorded:
RC80 =Concentration giving 80% repellency.
RC50 =Concentration giving 50% repellency.
RD80 =mg/cm^2 giving 80% repellency.
RD50 =mg/cm^2 giving 50% repellency.

SMILES: COC(=O)c1ccccc1C(=O)OC [Dimethyl Phthalate]
- % Repellency (Mean Values) ([1]; 1 hour): 20%
- Number of Lice (Out of 40) Found in the Treated Area ([1]; 1 hour): 21 and 12 and 15
- % Repellency (Mean Values) ([1]; 3 hours): 10%
- Number of Lice (Out of 40) Found in the Treated Area ([1]; 3 hours): 16 and 18 and 20
- Number of Lice (Out of 40) Found in the Treated Area ([1]; 4 hours): 16 and 14 and 18
- % Repellency (Mean Values) ([1]; 5 hours): 20%
- % Repellency (Mean Values) ([1]; 7 hours): 26%
- Number of Lice (Out of 40) Found in the Treated Area ([1]; 7 hours): 18 and 14 and 12
- % Repellency (Mean Values) ([2]; Table 3): 26%
- Number of Lice (Out of 40) Found in the Treated Area ([2]; single experiments (a), (b), (c), listed as D.M.P.): 18 and 14 and 12
- % Repellency (Mean Values) ([3]; 1 hour): 20%
- Number of Lice (Out of 40) Found in the Treated Area ([3]; 1 hour): 21 and 12 and 15
- % Repellency (Mean Values) ([3]; 3 hours): 10%
- Number of Lice (Out of 40) Found in the Treated Area ([3]; 3 hours): 16 and 18 and 20
- % Repellency (Mean Values) ([3]; 5 hours): 20%
- Number of Lice (Out of 40) Found in the Treated Area ([3]; 5 hours): 16 and 14 and 18
- lice repellency in vivo, in words ([3]; rabbit, in vivo): poor results
- repellency against lice over the duration stated ([3]; range over at least 5 or 7 hours): 10-25%

SMILES: CC1=CCC(C(C)(C)O)CC1 (stereo not drawn) [α-TERPINEOL, α-terpineol]
- mosquito repellency, in words [4]: useful in mosquito repellent
- RC50 (Concentration giving 50% repellency) [5]: 0.040%
- RC80 (Concentration giving 80% repellency) [5]: 0.080%
- RD80 (mg/cm^2 giving 80% repellency) [5]: 0.056 mg/cm^2
